Test results: PubChem BioAssay (NCI)
Several values for one entry are separate records, joined by “and”; a condition that tells them apart may be missing. Equal values may be shown once.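 These data come from cells grown in 96-well plates and exposed to compound for 48 hours at five concentrations. GI50: concentration for 50% inhibition of growth. The concentration for full growth arrest is given as TGI.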

Legend:
Assay in all cases: NCI tumour cell line growth inhibition, 48 h
HCT-15 colon = test system: HCT-15 colon
SK-MEL-28 melanoma = test system: SK-MEL-28 melanoma
UO-31 renal = test system: UO-31 renal
P388 leukemia = test system: P388 leukemia
NCI/ADR-RES ovarian = test system: NCI/ADR-RES ovarian
OVCAR-8 ovarian = test system: OVCAR-8 ovarian
UACC-257 melanoma = test system: UACC-257 melanoma
NCI-H23 lung = test system: NCI-H23 lung
OVCAR-4 ovarian = test system: OVCAR-4 ovarian
EKVX NSCLC = test system: EKVX NSCLC
SF-268 CNS = test system: SF-268 CNS
RPMI-8226 leukemia = test system: RPMI-8226 leukemia
M19-MEL melanoma = test system: M19-MEL melanoma
NCI-H460 lung = test system: NCI-H460 lung
MOLT-4 leukemia = test system: MOLT-4 leukemia
SK-OV-3 ovarian = test system: SK-OV-3 ovarian
CAKI-1 renal = test system: CAKI-1 renal
SK-MEL-5 melanoma = test system: SK-MEL-5 melanoma
HOP-18 NSCLC = test system: HOP-18 NSCLC
OVCAR-3 ovarian = test system: OVCAR-3 ovarian
HOP-62 NSCLC = test system: HOP-62 NSCLC
SK-MEL-2 melanoma = test system: SK-MEL-2 melanoma
MCF7 breast = test system: MCF7 breast
RXF 393 renal = test system: RXF 393 renal
COLO 205 colon = test system: COLO 205 colon
UACC-62 melanoma = test system: UACC-62 melanoma
SN12C renal = test system: SN12C renal
SNB-19 CNS = test system: SNB-19 CNS
KM12 colon = test system: KM12 colon
KM20L2 colon = test system: KM20L2 colon
HOP-92 NSCLC = test system: HOP-92 NSCLC
SN12K1 renal = test system: SN12K1 renal
HL-60(TB) leukemia = test system: HL-60(TB) leukemia
P388/ADR leukemia = test system: P388/ADR leukemia
LOX IMVI melanoma = test system: LOX IMVI melanoma
HT29 colon = test system: HT29 colon
A498 renal = test system: A498 renal
DLD-1 colon = test system: DLD-1 colon
HCC-2998 colon = test system: HCC-2998 colon
HCT-116 colon = test system: HCT-116 colon
DMS 273 small cell lung = test system: DMS 273 small cell lung
U251 CNS = test system: U251 CNS
DMS 114 small cell lung = test system: DMS 114 small cell lung
NCI-H226 lung = test system: NCI-H226 lung
SNB-78 CNS = test system: SNB-78 CNS
NCI-H522 lung = test system: NCI-H522 lung
CCRF-CEM leukemia = test system: CCRF-CEM leukemia
SF-539 CNS = test system: SF-539 CNS
OVCAR-5 ovarian = test system: OVCAR-5 ovarian
SW-620 colon = test system: SW-620 colon
XF 498 CNS = test system: XF 498 CNS
MALME-3M melanoma = test system: MALME-3M melanoma
IGROV1 ovarian = test system: IGROV1 ovarian
A549 NSCLC = test system: A549 NSCLC
SNB-75 CNS = test system: SNB-75 CNS
SF-295 CNS = test system: SF-295 CNS
K-562 leukemia = test system: K-562 leukemia

Q: Which results are given for `O=C1C(=O)c2cc([N+](=O)[O-])ccc2-c2ccc([N+](=O)[O-])cc21`?
A: TGI (HCT-15 colon): 3.02 µM; TGI (SK-MEL-28 melanoma): 4.21 µM; TGI (UO-31 renal): 4.44 µM; TGI (P388 leukemia): 0.52 µM; TGI (NCI/ADR-RES ovarian): 1.03 µM; TGI (OVCAR-8 ovarian): 1.27 µM; TGI (UACC-257 melanoma): 3.19 µM; TGI (NCI-H23 lung): 2.77 µM; TGI (OVCAR-4 ovarian): 0.951 µM; TGI (EKVX NSCLC): 3.94 µM; TGI (SF-268 CNS): 1.93 µM; TGI (RPMI-8226 leukemia): 1.35 µM; TGI (M19-MEL melanoma): 0.789 µM; TGI (NCI-H460 lung): 2.65 µM; TGI (MOLT-4 leukemia): 1.15 µM; TGI (SK-OV-3 ovarian): 5.31 µM; TGI (CAKI-1 renal): 2.14 µM; TGI (SK-MEL-5 melanoma): 3.67 µM; TGI (HOP-18 NSCLC): 8.89 µM; TGI (OVCAR-3 ovarian): 0.662 µM; TGI (HOP-62 NSCLC): 5.87 µM; TGI (SK-MEL-2 melanoma): 4.16 µM; TGI (MCF7 breast): 2.61 µM; TGI (RXF 393 renal): 0.892 µM; TGI (COLO 205 colon): 7.75 µM; TGI (UACC-62 melanoma): 1.54 µM; TGI (SN12C renal): 2.29 µM; TGI (SNB-19 CNS): 4.65 µM; TGI (KM12 colon): 2.66 µM; TGI (KM20L2 colon): 21.7 µM; TGI (HOP-92 NSCLC): 1.64 µM; TGI (SN12K1 renal): 0.964 µM; TGI (HL-60(TB) leukemia): 2.06 µM; TGI (P388/ADR leukemia): 2.54 µM; TGI (LOX IMVI melanoma): 3.82 µM; TGI (HT29 colon): 22.7 µM; TGI (A498 renal): 3.79 µM; TGI (DLD-1 colon): 3.95 µM; TGI (HCC-2998 colon): 5.41 µM; TGI (HCT-116 colon): 0.885 µM; TGI (DMS 273 small cell lung): 1.83 µM; TGI (U251 CNS): 2.36 µM; TGI (DMS 114 small cell lung): 0.908 µM; TGI (NCI-H226 lung): 4.09 µM; TGI (SNB-78 CNS): 2.66 µM; TGI (NCI-H522 lung): 3 µM; TGI (CCRF-CEM leukemia): 1.67 µM; TGI (SF-539 CNS): 1.83 µM; TGI (OVCAR-5 ovarian): 6.4 µM; TGI (SW-620 colon): 1.56 µM; TGI (XF 498 CNS): 2.64 µM; TGI (MALME-3M melanoma): 3.84 µM; TGI (IGROV1 ovarian): 2.29 µM; TGI (A549 NSCLC): 5.97 µM; TGI (SNB-75 CNS): 5.2 µM; TGI (SF-295 CNS): 3.53 µM; TGI (K-562 leukemia): 2.01 µM

Q: What does the source list for `CC/C=C\C/C=C\C/C=C\CCCCCCCC(=O)OC`?
A: TGI (HCT-15 colon): > 100 µM; TGI (SK-MEL-28 melanoma): > 100 µM; TGI (UO-31 renal): > 100 µM; TGI (NCI/ADR-RES ovarian): > 100 µM; GI50 (OVCAR-8 ovarian): 0.0205 µM; TGI (OVCAR-8 ovarian): 11.8 µM and > 100 µM; TGI (UACC-257 melanoma): > 100 µM; TGI (NCI-H23 lung): > 100 µM; TGI (OVCAR-4 ovarian): > 100 µM; TGI (EKVX NSCLC): > 100 µM; TGI (SF-268 CNS): > 100 µM; GI50 (RPMI-8226 leukemia): 19.8 µM; TGI (RPMI-8226 leukemia): 69.9 µM and > 100 µM; GI50 (M19-MEL melanoma): 45.1 µM; TGI (M19-MEL melanoma): > 100 µM; TGI (NCI-H460 lung): > 100 µM; TGI (MOLT-4 leukemia): > 100 µM; TGI (SK-OV-3 ovarian): > 100 µM; TGI (CAKI-1 renal): > 100 µM; TGI (SK-MEL-5 melanoma): > 100 µM; TGI (HOP-18 NSCLC): > 100 µM; TGI (OVCAR-3 ovarian): > 100 µM; TGI (HOP-62 NSCLC): > 100 µM; TGI (SK-MEL-2 melanoma): > 100 µM; GI50 (MCF7 breast): 37.8 µM; TGI (MCF7 breast): > 100 µM; GI50 (COLO 205 colon): > 100 µM; TGI (COLO 205 colon): > 100 µM; TGI (UACC-62 melanoma): > 100 µM; TGI (SN12C renal): > 100 µM; TGI (SNB-19 CNS): > 100 µM; TGI (KM12 colon): > 100 µM; GI50 (KM20L2 colon): > 100 µM; TGI (KM20L2 colon): > 100 µM; TGI (HOP-92 NSCLC): > 100 µM; TGI (SN12K1 renal): > 100 µM; TGI (HL-60(TB) leukemia): 49.9 µM; TGI (P388/ADR leukemia): 66.3 µM; GI50 (LOX IMVI melanoma): 25 µM; TGI (LOX IMVI melanoma): 68.4 µM and 38.3 µM; TGI (HT29 colon): > 100 µM; TGI (A498 renal): > 100 µM; TGI (DLD-1 colon): > 100 µM; TGI (HCC-2998 colon): > 100 µM; GI50 (HCT-116 colon): 70.6 µM; TGI (HCT-116 colon): > 100 µM; TGI (DMS 273 small cell lung): > 100 µM; TGI (U251 CNS): > 100 µM; GI50 (DMS 114 small cell lung): 83.3 µM; TGI (DMS 114 small cell lung): > 100 µM; TGI (NCI-H226 lung): > 100 µM; GI50 (SNB-78 CNS): > 100 µM; TGI (SNB-78 CNS): > 100 µM; TGI (NCI-H522 lung): > 100 µM; GI50 (CCRF-CEM leukemia): 3.72 µM; TGI (CCRF-CEM leukemia): > 100 µM; TGI (SF-539 CNS): > 100 µM; TGI (OVCAR-5 ovarian): > 100 µM; TGI (SW-620 colon): > 100 µM; TGI (XF 498 CNS): > 100 µM; TGI (MALME-3M melanoma): > 100 µM; TGI (IGROV1 ovarian): > 100 µM; TGI (A549 NSCLC): > 100 µM; GI50 (SNB-75 CNS): > 100 µM; TGI (SNB-75 CNS): > 100 µM; TGI (SF-295 CNS): > 100 µM; GI50 (K-562 leukemia): 39.4 µM; TGI (K-562 leukemia): > 100 µM
